Reference: article PMC6644236, “Cytotoxicity of Crude Extract and Isolated Constituents of the Dichrostachys cinerea Bark towards Multifactorial Drug-Resistant Cancer Cells” (Evidence-based Complementary and Alternative Medicine : eCAM, 2019)
Like-named read-outs stand apart in the source and are kept apart here.

Key:
[1] = system: MDA-MB-231-pcDNA breast cancer cells; assay: Resazurin reduction cytotoxicity assay; assay type: cell-based; details: 72 h incubation
HCT116 p53-/- cells = assay: Resazurin reduction cytotoxicity assay; assay type: cell-based; details: for IC50: Homo sapiens, HCT-116, HCT116(p53-/-), 72 h incubation; for Degree of resistance: IC50 in HCT116 (p53-/-) divided by IC50 in HCT116 (p53+/+)
Description: (§2) Drug-sensitive and drug-resistant cancer cell lines of previously reported origin were used in this study. These included drug-sensitive CCRF-CEM leukemia cells and its multidrug-resistant P-glycoprotein-overexpressing subline CEM/ADR5000 cells [14–16], MDA-MB-231-pcDNA breast cancer cells and their resistant subline MDA-MB-231-BCRP clone 23 cells [17], HCT116 p53^+/+colon cancer cells and their knockout clone HCT116 p53^−/− cells, and U87.MG glioblastoma cells and their resistant subline U87.MGΔEGFR cells [18, 19]. Normal AML12 hepatocytes were used and compared with HepG2 hepatocarcinoma cells [18, 19].
(§3) The Infinite M2000 Pro™ plate reader (Tecan, Crailsheim, Germany) with excitation wavelength of 544 nm and an emission wavelength of 590 nm was used to read the fluorescence after 72 h incubation. IC50 values earlier defined [13] were calculated from a calibration curve by linear regression using Microsoft Excel [24]. The degree of resistance (D.R.) was determined as the IC50 value of the resistant cell line versus that of its sensitive congeners; meanwhile, the selectivity index (S.I.) was the IC50 value in normal AML12 hepatocytes versus that in HepG2 hepatocarcinoma.

[2] = system: HCT116 p53+/+ colon cancer cells; assay: Resazurin reduction cytotoxicity assay; assay type: cell-based
[3] = system: 9 tested cancer cell lines; assay: Resazurin reduction cytotoxicity assay, whole panel; assay type: cell-based; details: for IC50: all tested cancer cell lines, 72 h incubation, read-out: IC50 values over the tested cancer cell lines
Description: These included drug-sensitive CCRF-CEM leukemia cells and its multidrug-resistant P-glycoprotein-overexpressing subline CEM/ADR5000 cells [14–16], MDA-MB-231-pcDNA breast cancer cells and their resistant subline MDA-MB-231-BCRP clone 23 cells [17], HCT116 p53^+/+colon cancer cells and their knockout clone HCT116 p53^−/− cells, and U87.MG glioblastoma cells and their resistant subline U87.MGΔEGFR cells [18, 19]. Normal AML12 hepatocytes were used and compared with HepG2 hepatocarcinoma cells [18, 19].
as §3

[4] = system: CEM/ADR5000 cells (multidrug-resistant P-glycoprotein-overexpressing subline); assay: Resazurin reduction cytotoxicity assay; assay type: cell-based; details: for IC50: CEM/ADR5000, 72 h incubation; for Degree of resistance: IC50 in CEM/ADR5000 divided by IC50 in CCRF-CEM
Description: as §2, §3

[5] = system: MDA-MB-231-BCRP clone 23 cells; assay: Resazurin reduction cytotoxicity assay; details: for Degree of resistance: IC50 in MDA-MB-231-BCRP divided by IC50 in MDA-MB-231-pcDNA; for IC50: MDA-MB-231/BCRP, 72 h
Description: as §2, §3

U87.MGΔEGFR cells = assay: Resazurin reduction cytotoxicity assay; assay type: cell-based; details: for Degree of resistance: IC50 in U87MG.ΔEGFR divided by IC50 in U87MG; for IC50: U87MG.ΔEGFR, 72 h incubation
Description: as §2, §3

CCRF-CEM leukemia cells = assay: Resazurin reduction cytotoxicity assay; assay type: cell-based; details: 72 h incubation
Description: as §3

[6] = system: HepG2 hepatocarcinoma cells; assay: Resazurin reduction cytotoxicity assay; assay type: cell-based; details: Homo sapiens; HepG2, 72 h incubation
Description: as §3

Normal AML12 hepatocytes = assay: Resazurin reduction cytotoxicity assay; assay type: cell-based; details: for IC50: Mus musculus, normal AML12 hepatocytes, 72 h incubation; for Selectivity index: IC50 in normal AML12 hepatocytes divided by IC50 in HepG2
Description: as §2, §3

[7] = system: U87.MG glioblastoma cells; assay: Resazurin reduction cytotoxicity assay; assay type: cell-based; details: Homo sapiens, U-87 MG; U87MG, 72 h incubation
CCRF-CEM cells [8] = assay: Mitochondrial membrane potential (MMP), JC-1 staining; assay type: cell-based; details: 24 h
Description: The mitochondrial membrane potential (MMP) of CCRF-CEM cells was analyzed after 24 h treatment with DCB, compound 1, or valinomycin (mitochondrial gradient dissipation substance or positive control). The 5,5′,6,6′-tetrachloro-1,1′,3,3′-tetraethylbenzimidazolyl carbocyanine iodide (JC-1; Biomol, Hamburg, Germany) staining was used to measure the MMP similarly as previously reported.

CCRF-CEM cells [9] = assay: Cell cycle analysis by flow cytometry (PI); assay type: cell-based; details: 24 h
Description: Aliquots of 1×10^6 CCRF-CEM cells were treated with the studied samples (DCB and compound 1), the reference drug (doxorubicin), or the solvent control (DMSO) at various concentrations. […] The BD Accuri C6 Flow Cytometer (BD Biosciences, Heidelberg, Germany) was used to measure the propidium iodide (PI) fluorescence of individual nuclei. Assays were repeated at least three times and in triplicate.

CCRF-CEM cells [10] = system: CCRF-CEM cells; design: method as in PMID 29867487, PMID 11734332; details: highest of the reported range, ref [34], [36]; cited from earlier work
caspases 3/7 = assay: Caspase-Glo 3/7 assay; assay type: cell-based; details: CCRF-CEM, 6 h, optimal effects at 8.8 μM
Description: (§1) After 6 h treatment of CCRF-CEM cells with DCB and triterpenoid 1 for 6 h, caspases activities were evaluated with Caspase-Glo 3/7, 8, and 9 assay kits (Promega, Mannheim, Germany) similarly as previously reported.

caspase 8 = assay: Caspase-Glo 8 assay; assay type: cell-based; details: CCRF-CEM, 6 h, optimal effects at 8.8 μM
Description: as §1

[11] = system: normal PBL peripheral blood lymphoblast; design: method as in PMID 11734332; details: ref [36]; cited from earlier work
[12] = system: CEM/ADR5000 leukemia cells; design: method as in PMID 29867487; details: CEM/ADR5000 compared to CCRF-CEM; ref [34]; cited from earlier work
CCRF-CEM cells [13] = assay: ROS production, H2DCFH-DA; assay type: cell-based; details: 24 h, 2 × IC50 (11.38 μg/mL crude extract; 17.60 μM compound 1)
Description: The measurement of ROS production using 2′,7′-dichlorodihydrofluorescein diacetate (H2DCFH-DA) (Sigma-Aldrich) was done in CCRF-CEM cells were treated with DCB, compound 1, a solvent control (DMSO), or a positive control, hydrogen peroxide (H2O2) for 24 h, in similar experimental conditions as documented earlier.

HEK293 cells = system: HEK293 cells; design: method as in PMID 29867487, PMID 11734332; details: lowest of the reported range, ref [34], [36]; cited from earlier work
caspase 9 = assay: Caspase-Glo 9 assay; assay type: cell-based; details: CCRF-CEM, 6 h, optimal effects at 8.8 μM
Description: as §1

CCRF-CEM cells [14] = assay: Annexin V/PI staining, apoptosis by flow cytometry; details: 24 h, 2 × IC50
Description: The experimental conditions were similar to those earlier reported (24 h incubation; humidified 5% CO2 atmosphere; 37°C) [13]. The BD Accuri C6 Flow Cytometer was then used to analyze apoptosis using fluorescein isothiocyanate (FITC)-conjugated annexin V/PI assay kit (eBioscience™ Annexin V; Invitrogen, San Diego, USA) similarly as reported earlier [13, 22, 23]; early apoptosis for cells stained with only annexin V; late apoptosis or in a necrotic stage for cells stained with both annexin V and propidium iodide [13, 25, 26].

[15] = Homo sapiens, HCT-116, 72 h, 72 h incubation

O=c1cc(-c2ccc(O)cc2)oc2cc(O)ccc12 [Compound 3, 7-hydroxy-2-(4-hydroxyphenyl)-4H-chromen-4-one]
IC50 [1]: 75.5 ± 5.16 µM
IC50 (HCT116 p53-/- cells): 66.3 ± 5.67 µM
Degree of resistance (HCT116 p53-/- cells): < 0.66
IC50 ([2]; Homo sapiens, HCT-116, 72 h incubation): > 100 µM
IC50 [3]: > 10 µM
IC50 ([4]; Homo sapiens): 124 ± 20.2 µM
Degree of resistance [4]: 3.98
Degree of resistance [5]: 1.06
IC50 [5]: 80 ± 1.61 µM
Degree of resistance (U87.MGΔEGFR cells): 0.88
IC50 (U87.MGΔEGFR cells): 53.8 ± 6.1 µM
IC50 (CCRF-CEM leukemia cells; Homo sapiens): 31.2 ± 0.98 µM
IC50 [6]: 48.6 ± 7.09 µM
IC50 (Normal AML12 hepatocytes): > 100 µM
IC50 [7]: 61.3 ± 5.87 µM

O=c1cc(-c2ccc(O)cc2)oc2ccc(O)cc12 [Compound 4, 6-hydroxy-2-(4-hydroxyphenyl)-4H-chromen-4-one]
IC50 [1]: 45.8 ± 4.76 µM
IC50 (HCT116 p53-/- cells): 48.6 ± 3.82 µM
Degree of resistance (HCT116 p53-/- cells): 1.00
IC50 ([2]; 72 h incubation): 48.9 ± 5.35 µM
IC50 [2, 15]: 88.9 µM
IC50 ([4]; Homo sapiens): 38.8 ± 2.13 µM
Degree of resistance [4]: 2.05
Degree of resistance [5]: 0.88
IC50 [5]: 40.5 ± 3.9 µM
Degree of resistance (U87.MGΔEGFR cells): 1.02
IC50 (U87.MGΔEGFR cells): 44.6 ± 2.56 µM
IC50 (CCRF-CEM leukemia cells; Homo sapiens): 18.9 ± 1.54 µM
IC50 [6]: 34 ± 2.95 µM
Selectivity index (Normal AML12 hepatocytes): 1.59
IC50 (Normal AML12 hepatocytes): 53.9 ± 11.2 µM
IC50 [7]: 43.9 ± 8.19 µM

CC(C)[C@@H]1NC(=O)[C@H](C)OC(=O)[C@@H](C(C)C)NC(=O)[C@@H](C(C)C)OC(=O)[C@H](C(C)C)NC(=O)[C@H](C)OC(=O)[C@@H](C(C)C)NC(=O)[C@@H](C(C)C)OC(=O)[C@H](C(C)C)NC(=O)[C@H](C)OC(=O)[C@@H](C(C)C)NC(=O)[C@@H](C(C)C)OC1=O [Valinomycin, valinomycin, reference compound]
Q1 intact cells (CCRF-CEM cells [8]; 10 μM): 54.1%
Q2 loss of MMP (CCRF-CEM cells [8]; 10 μM): 45.9%
Q3 ruptured cell membrane (CCRF-CEM cells [8]; 10 μM): 0.00%
Q4 ruptured cell membrane (CCRF-CEM cells [8]; 10 μM): 0.00%

COc1cccc2c1C(=O)c1c(O)c3c(c(O)c1C2=O)C[C@@](O)(C(=O)CO)C[C@@H]3O[C@H]1C[C@H](N)[C@H](O)[C@H](C)O1 [Doxorubicin, doxorubicin, reference compound]
IC50 [1]: 0.13 ± 0.01 µM
IC50 (HCT116 p53-/- cells): 1.78 ± 0.08 µM
Degree of resistance (HCT116 p53-/- cells): 3.73
Degree of resistance [4]: 6,683.00
Cell cycle arrest (phase) (CCRF-CEM cells [9]): between S and G2/M
Degree of resistance [5]: 6.14
IC50 [5]: 0.79 ± 0.08 µM
Degree of resistance (U87.MGΔEGFR cells): 3.79
IC50 (U87.MGΔEGFR cells): 0.98 ± 0.07 µM
IC50 (CCRF-CEM leukemia cells; Homo sapiens): 0.02 µM
IC50 [6]: 4.56 ± 0.48 µM
IC50 (Normal AML12 hepatocytes): 52.9 ± 4.09 µM
IC50 [7]: 0.26 ± 0.03 µM

CCCCCCCCCCCCCCCCCCCCCCCCCC(=O)OCC(O)CO (stereo not shown) [Compound 2, glyceryl-1-hexacosanoate]
IC50 [1]: > 100 µM
IC50 (HCT116 p53-/- cells): > 100 µM
IC50 [2, 15]: > 100 µM
IC50 ([3]; 72 h): > 100 µM
IC50 ([4]; Homo sapiens): > 100 µM
IC50 [5]: > 100 µM
IC50 (U87.MGΔEGFR cells): > 100 µM
IC50 (CCRF-CEM leukemia cells; Homo sapiens): > 100 µM
IC50 [6]: > 100 µM
IC50 (Normal AML12 hepatocytes): > 100 µM
IC50 [7]: > 100 µM

C=C(C)[C@@H]1CC[C@]2(C(=O)O)CC[C@]3(C)[C@H](CC[C@@H]4[C@@]5(C)CC[C@H](O)C(C)(C)[C@@H]5CC[C@]43C)[C@@H]12 [Compound 1, betulinic acid]
IC50 [1]: 38.8 ± 0.94 µM
IC50 (CCRF-CEM cells [10]): 29.4 µM
IC50 (HCT116 p53-/- cells): 17.1 ± 0.7 µM
Degree of resistance (HCT116 p53-/- cells): 0.54
IC50 [2, 15]: 31.5 ± 0.49 µM
IC50 ([3]; 72 h): < 50 µM
Degree of resistance (D.R.), all resistant cell lines ([3]; all resistant cell lines compared to their sensitive counterparts): below 1
Increase in the activity of caspases 3/7 (caspases 3/7): 3.19 fold
IC50 [4]: 7.65 ± 1.46 µM
IC50 ([4]; Homo sapiens, ADR5000, 72 h): < 10 µM
Degree of resistance [4]: 0.87
Q1 intact cells (CCRF-CEM cells [8]; 1/2 × IC50): 83.0%
Q2 loss of MMP (CCRF-CEM cells [8]; 1/2 × IC50): 1.28%
Q3 ruptured cell membrane (CCRF-CEM cells [8]; 1/2 × IC50): 0.291%
Q4 ruptured cell membrane (CCRF-CEM cells [8]; 1/2 × IC50): 15.4%
Q1 intact cells (CCRF-CEM cells [8]; 1/4 × IC50): 88.0%
Q2 loss of MMP (CCRF-CEM cells [8]; 1/4 × IC50): 1.43%
Q3 ruptured cell membrane (CCRF-CEM cells [8]; 1/4 × IC50): 0.057%
Q4 ruptured cell membrane (CCRF-CEM cells [8]; 1/4 × IC50): 10.6%
Q1 intact cells (CCRF-CEM cells [8]; 2 × IC50): 42.5%
Q2 loss of MMP (CCRF-CEM cells [8]; 2 × IC50): 57.5%
Q3 ruptured cell membrane (CCRF-CEM cells [8]; 2 × IC50): 0.00%
Q4 ruptured cell membrane (CCRF-CEM cells [8]; 2 × IC50): 0.00%
Q1 intact cells (CCRF-CEM cells [8]; IC50): 51.8%
Q2 loss of MMP (CCRF-CEM cells [8]; IC50): 48.2%
Q3 ruptured cell membrane (CCRF-CEM cells [8]; IC50): 0.00%
Q4 ruptured cell membrane (CCRF-CEM cells [8]; IC50): 0.00%
Increase in the activity of caspase 8 (caspase 8): 2.91 fold
Cytotoxicity towards normal cells [11]: low cytotoxicity
Sensitivity of resistant cells compared to sensitive congener [12]: hypersensitivity
Cell percentage Sub-G0/G1 (CCRF-CEM cells [9]; 1/4 × IC50): 15.30%
Cell percentage Sub-G0/G1 (CCRF-CEM cells [9]; 2 × IC50): 48.40%
Degree of resistance [5]: 0.64
IC50 [5]: 24.9 ± 1.2 µM
Degree of resistance (U87.MGΔEGFR cells): 0.56
IC50 (U87.MGΔEGFR cells): 13.9 ± 1.06 µM
IC50 (CCRF-CEM leukemia cells): 8.8 ± 0.35 µM
IC50 (CCRF-CEM leukemia cells; Homo sapiens, 72 h): < 10 µM
ROS production, percentage (CCRF-CEM cells [13]): 53.30%
IC50 [6]: 44.2 ± 3.15 µM
IC50 (HEK293 cells): 15.1 µM
Increase in the activity of caspase 9 (caspase 9): 2.37 fold
Selectivity index (Normal AML12 hepatocytes): > 2.13
IC50 (Normal AML12 hepatocytes): > 93.9 µM
Q9-LR early apoptotic cells annexin (+)/PI (-) (CCRF-CEM cells [14]): 51.0%
Q9-UL annexin V (-)/PI (+) cells (necrosis) (CCRF-CEM cells [14]): 5.1%
IC50 [7]: 24.9 ± 0.33 µM
